How the values were obtained:
Format in all cases: cell-based
Aspergillus fumigatus = experiment: plate bioassay of volatile test mixtures, growth inhibition; conditions: 30 hr at 22° C.; esters with 1:1 v/v propanoic acid and isobutryic acid (acids to ester 7:2 v/v), 9 ul; acids 7 ul
Description: (§1) FIG. 1 illustrates a plate bioassay to determine the bioactivity of various esters when combined with a 1:1 mix of the two organic acids as per Table 2. The test organisms were as follows—Cercospora (dark-lower left bottom) then clockwise—Phytophthora, Verticillium, Sclerotinia, Pythium. Fusarium, Trichoderma, Rhizoctonia, and Aspergillus. The streaks were Saccharomyces (far right bottom) then Candida, E coli and Bacillus (left bottom). A=control plate, and B=plate with System 1 after incubation for 30 hr.
(§2) FIG. 1. Indicates how the assays were done to yield the data sets in Table 1. The various esters were combined with a 1:1 mixture of propanoic acid and isobutryic acid and these were added 7:2 V/V with the ester to be tested.
(§3) Shown in Table 1, are the inhibition and killing effects of propanoic acid, and isobutryic acid together and alone and with various esters. The tests were conducted over the course of 30 hr at 22° C. Measurements were made on appropriate controls and thus the percentage of inhibition calculations could be made on treatments vs the growth on a control organism (non-treated). The bacteria and yeast like organisms were evaluated on the basis of relative growth rates after 30 hr. Those highlighted areas on the table show those compounds (esters) having the most compatibility with propanoic and isobutryic acid 1:1 v/v mixtures with the appropriate esters at a 7:2 ratio—Systems 1 and 2 above. It is from this test that Systems 1 and 2 were discovered. The acids were added at […] individually and combination of the esters with the acids were added at the […] in the plate assay.

Fusarium subglutinans = experiment: as above; conditions: 30 hr at 22° C.; esters with 1:1 v/v propanoic acid and isobutryic acid (acids to ester 7:2 v/v), 9 ul; acids 7 ul
Description: as §1, §2, §3

Cercospora beticola = experiment: as above; conditions: 30 hr at 22° C.; esters with 1:1 v/v propanoic acid and isobutryic acid (acids to ester 7:2 v/v), 9 ul; acids 7 ul
Description: as §1
(§4) FIG. 9 depicts the biological activities of various test mixtures against a panel of test microbes. A small plug of each organism was placed in the periphery of the PDA plate. In the center well was placed the test solution in the plastic cup holder. A control plate (A) was also set up. After 30 hr the growth of the test organisms was compared to that of the control and the % inhibition was calculated. The (B) plate contained the test mixture. Measurements were made 30 hr after plate set up.
as §2, §3
as §4, with “Tests were conducted as similarly described for Systems 1 and 2 above (FIG. 9) to ascertain” for “FIG. 9 depicts”

Rhizoctonia solani = experiment: as above; conditions: 30 hr at 22° C.; esters with 1:1 v/v propanoic acid and isobutryic acid (acids to ester 7:2 v/v), 9 ul; acids 7 ul
Description: as §1, §4, §2, §3
as §4, with “Tests were conducted as similarly described for Systems 1 and 2 above (FIG. 9) to ascertain” for “FIG. 9 depicts”

Pythium ultimum = experiment: as above; conditions: 30 hr at 22° C.; esters with 1:1 v/v propanoic acid and isobutryic acid (acids to ester 7:2 v/v), 9 ul; acids 7 ul
Description: as §1, §4, §2, §3
as §4, with “Tests were conducted as similarly described for Systems 1 and 2 above (FIG. 9) to ascertain” for “FIG. 9 depicts”

Trichoderma viridae = experiment: as above; conditions: 30 hr at 22° C.; esters with 1:1 v/v propanoic acid and isobutryic acid (acids to ester 7:2 v/v), 9 ul; acids 7 ul
Description: as §1, §4, §2, §3
as §4, with “Tests were conducted as similarly described for Systems 1 and 2 above (FIG. 9) to ascertain” for “FIG. 9 depicts”

Verticillium dahliae = experiment: as above; conditions: 30 hr at 22° C.; esters with 1:1 v/v propanoic acid and isobutryic acid (acids to ester 7:2 v/v), 9 ul; acids 7 ul
Description: as §1, §4, §2, §3
as §4, with “Tests were conducted as similarly described for Systems 1 and 2 above (FIG. 9) to ascertain” for “FIG. 9 depicts”

Phytophthora cinnamomi = experiment: as above; conditions: 30 hr at 22° C.; esters with 1:1 v/v propanoic acid and isobutryic acid (acids to ester 7:2 v/v), 9 ul; acids 7 ul
Description: as §1, §4, §2, §3
as §4, with “Tests were conducted as similarly described for Systems 1 and 2 above (FIG. 9) to ascertain” for “FIG. 9 depicts”

Bacillus subtilus = experiment: plate bioassay of volatile test mixtures, relative growth of streak; conditions: relative growth after 30 hr at 22° C.; esters with 1:1 v/v propanoic acid and isobutryic acid (7:2 v/v), 9 ul; acids 7 ul
Description: as §1, §4, §2, §3
as §4, with “Tests were conducted as similarly described for Systems 1 and 2 above (FIG. 9) to ascertain” for “FIG. 9 depicts”

Saccharomyces cerevicae = experiment: as above; conditions: relative growth after 30 hr at 22° C.; esters with 1:1 v/v propanoic acid and isobutryic acid (7:2 v/v), 9 ul; acids 7 ul
Description: as §1, §4, §2, §3
as §4, with “Tests were conducted as similarly described for Systems 1 and 2 above (FIG. 9) to ascertain” for “FIG. 9 depicts”

Candida albicans = experiment: as above; conditions: relative growth after 30 hr at 22° C.; esters with 1:1 v/v propanoic acid and isobutryic acid (7:2 v/v), 9 ul; acids 7 ul
Description: as §1, §4, §2, §3
as §4, with “Tests were conducted as similarly described for Systems 1 and 2 above (FIG. 9) to ascertain” for “FIG. 9 depicts”

Escherichia coli = experiment: as above; conditions: relative growth after 30 hr at 22° C.; esters with 1:1 v/v propanoic acid and isobutryic acid (7:2 v/v), 9 ul; acids 7 ul
Description: as §1, §4, §2, §3
as §4, with “Tests were conducted as similarly described for Systems 1 and 2 above (FIG. 9) to ascertain” for “FIG. 9 depicts”

Sclerotinia sclerotiorum = experiment: plate bioassay of volatile test mixtures, growth inhibition; conditions: 30 hr at 22° C.; esters with 1:1 v/v propanoic acid and isobutryic acid (acids to ester 7:2 v/v), 9 ul; acids 7 ul
Description: as §1, §4, §2
The tests were conducted over the course of 30 hr at 22° C. Measurements were made on appropriate controls and thus the percentage of inhibition calculations could be made on treatments vs the growth on a control organism (non-treated). The bacteria and yeast like organisms were evaluated on the basis of relative growth rates after 30 hr. […] The acids were added at […] individually and combination of the esters with the acids were added at the […] in the plate assay.
as §4, with “Tests were conducted as similarly described for Systems 1 and 2 above (FIG. 9) to ascertain” for “FIG. 9 depicts”

Row | Compound | inhibition of Aspergillus fumigatus (Aspergillus fumigatus) | inhibition of Fusarium subglutinans (Fusarium subglutinans) | inhibition of Cercospora beticola (Cercospora beticola) | inhibition of Rhizoctonia solani (Rhizoctonia solani) | inhibition of Pythium ultimum (Pythium ultimum) | inhibition of Trichoderma viridae (Trichoderma viridae) | inhibition of Verticillium dahliae (Verticillium dahliae) | inhibition of Phytophthora cinnamomi (Phytophthora cinnamomi) | growth of Bacillus subtilus (Bacillus subtilus) | growth of Saccharomyces cerevicae (Saccharomyces cerevicae) | growth of Candida albicans (Candida albicans) | growth of Escherichia coli (Escherichia coli) | inhibition of Sclerotinia sclerotiorum (Sclerotinia sclerotiorum)
1 | CC(=O)OCC(C)C [Isobutyl Acetate] | 0% | 67% | 95% | 57% | 100% | 20% | 60% | 67% | Inhibited | Growth Observed | Growth Observed | Inhibited | 20%
2 | CCCOC(=O)C(C)C [Propyl Isobutyrate] | 50% | 50% | 95% | 97% | 98% | 33% | 88% | 87% | Inhibited | Growth Observed | Growth Observed | Inhibited | 40%
3 | CC(C)COC(=O)C(C)C [Isobutyl Isobutyrate] | 80% | 50% | 95% | 86% | 100% | 47% | 92% | 0% | Inhibited | Growth Observed | Growth Observed | Inhibited | 75%
4 | CCCC(=O)OCC(C)C [Isobutyl Butyrate] | 0% | 33% | 100% | 100% | 100% | 47% | 96% | 33% | No Growth | Growth Observed | Growth Observed | No Growth | 70%
5 | CC(C)COC(=O)CC(C)C [Isobutyl Isovalerate] | 0% | 67% | 95% | 94% | 100% | 20% | 96% | 100% | Inhibited | Growth Observed | Growth Observed | Inhibited | 0%
6 | CC(C)CCOC(=O)C(C)C [Isoamyl Isobutyrate] | 80% | 67% | 95% | 100% | 100% | 67% | 96% | 97% | No Growth | Growth Observed | Growth Observed | No Growth | 80%
7 | CCCC(=O)OCCC(C)C [Isoamyl Butyrate] | 90% | 100% | 100% | 100% | 100% | 90% | 100% | 100% | No Growth | Growth Observed | No Growth | No Growth | 95%
8 | CC(C)C(=O)O [Isobutyric Acid, reference compound] | 90% | 67% | 95% | 86% | 100% | 27% | 90% | 100% | No Growth | Growth Observed | Growth Observed | No Growth | 40%
9 | CCC(=O)OCC(C)C [Isobutyl Propionate] | 80% | 67% | 100% | 100% | 100% | 40% | 88% | 33% | No Growth | Growth Observed | Growth Observed | No Growth | 80%
10 | CCCCOC(=O)C(C)C [Butyl Isobutyrate] | 0% | 0% | 95% | 97% | 100% | 40% | 60% | 0% | No Growth | Growth Observed | Growth Observed | No Growth | 0%
11 | CCOC(=O)C(C)C [Ethyl Isobutyrate] | 80% | 67% | 95% | 100% | 100% | 67% | 80% | 100% | No Growth | Growth Observed | Growth Observed | No Growth | 90%
12 | CC(C)OC(=O)C(C)C [Isopropyl Isobutyrate] | 0% | 33% | 95% | 43% | 100% | 20% | 96% | −33% | No Growth | Growth Observed | Growth Observed | No Growth | 30%
